# Test results reported in US20250136574A1, “SELECTIVE AGENTS TARGETING MYCOBACTERIUM TUBERCULOSIS” (priority 2022, published 2025).
# “And” between values parts separate entries of the source, which are not always exact repeats. Identical values can stand only once.
# Tested on: Vero TMPRSS2 cells
# Test: Cytotoxicity at single concentration, CellTiter-Glo ATP quantitation
# Type: cell-based, African Green Monkey
# Conditions: 50 uM, 72 hours
# Method: Cytotoxicity assays were conducted to measure toxicity of compounds at single concentration in Vero TMPRSS2 cells by using quantitation of ATP to indicate metabolically active cells. Vero cells (derived from African Green Monkey kidney epithelial tissue) were grown in Dulbecco's Modified Eagle Medium (DMEM) supplemented with 10% fetal bovine serum (FBS), 10 mM HEPES buffered saline, and 2 mM L-glutamine. 5,000 cells per well were seeded into a 96-well plate containing two-fold titrations of compounds. The concentration of DMSO was maintained at 0.5% for all wells to avoid toxicity. The plates were incubated for 72 hours, at which point they were acclimatized to room temperature for 30 minutes. 25 μL of the substrate/buffer solution from the Promega CellTiter-Glo Luminescent Cell Viability Assay kit was added to each well. The plates were shaken at a low orbital speed for 3 minutes and let rest at room temperature for 10 minutes, after which luminescence was measured using a BioTek Synergy H1 Microplate Reader H1M. The positive control was defined as wells containing cells without compounds.
# Percent viability was calculated as follows: […]
Structure (SMILES),% Cell Viability Average,% Cell Viability Replicate 1,% Cell Viability Replicate 2
"CO[C@H]1[C@H](O[C@H]([C@H]2O[C@@H](n3ccc(=O)[nH]c3=O)[C@H](O)[C@@H]2O)[C@H](NCCCNC(=O)[C@H](CC(C)C)NC(=O)[C@@H](NC(=O)N[C@H](C(=O)O)C(C)C)[C@@H]2CCN=C(N)N2)C(=O)O)O[C@H](CN)[C@H]1O [Muraymycin D1, reference compound]",92.38% and 91.22% and 89.63%,93.83% and 94.27% and 87.87%,90.92% and 88.18% and 91.39%
"CCC(CC)COC(=O)[C@H](C)N[P@](=O)(OC[C@H]1O[C@@](C#N)(c2ccc3c(N)ncnn23)[C@H](O)[C@@H]1O)Oc1ccccc1 [remdesivir, reference compound]",94.25% and 93.47% and 89.22%,94.32% and 91.48% and 89.25%,94.19% and 95.46% and 89.19%

# Same assay, conditions: 100 uM, 72 hours
Structure (SMILES),% Cell Viability Average [%],% Cell Viability Replicate 1 [%],% Cell Viability Replicate 2 [%]
CCCCCCC#Cc1cncc(-c2nnc(SCc3cccc([N+](=O)[O-])c3)n2C)c1,26.47,26.28,26.66
CCCCCCC#Cc1cncc(-c2nnc(SCCCn3ccc(=O)[nH]c3=O)n2C)c1,14.14,9.07,19.21
CCCCCCC#Cc1cncc(-c2nnc(SC[C@H]3O[C@@H](n4ccc(=O)[nH]c4=O)[C@@H]4OC(C)(C)O[C@@H]43)n2C)c1,1.10,1.02,1.19
CCCCCCC#Cc1cncc(-c2nnc(S)n2C)c1,0.76,0.70,0.82
CCCCCCC#Cc1cncc(-c2nnc(SCc3ccc(C(F)(F)F)cc3)n2C)c1 [drawing 96],70.35,74.34,66.36
CCCCCCC#Cc1cncc(-c2nnc(SCc3ccc(C#N)cc3)n2C)c1 [drawing 98],66.33,75.34,57.31
CCCCCCC#Cc1cncc(-c2nnc(SCc3ccc(OC)cc3)n2C)c1 [drawing 99],54.63,60.30,48.95
CCCCCCC#Cc1cncc(-c2nnc(SCc3ccc(Cl)cc3)n2C)c1 [drawing 100],54.05,53.54,54.56
CCCCCCC#Cc1cncc(-c2nnc(SCc3ccc(Cl)cc3)n2C)c1 [drawing 102],42.78,47.04,38.53
CCCCCCC#Cc1cncc(-c2nnc(SCc3ccc(Br)cc3)n2C)c1 [drawing 103],42.17,42.94,41.40
CCCCCCC#Cc1cncc(-c2nnc(SCc3ccc([N+](=O)[O-])cc3)n2C)c1 [drawing 106],34.59,39.61,29.56
CCCCCCC#Cc1cncc(-c2nnc(SCc3ccc(Cl)cc3)n2C2CC2)c1 [drawing 107],33.69,32.40,34.99
CCCCCCC#Cc1cncc(-c2nnc(SCc3ccc(C)cc3)n2C)c1 [drawing 109],20.46,20.58,20.35
CCCCCCC#Cc1cncc(-c2nnc(SCc3ccc(F)cc3)n2C)c1 [drawing 110],19.61,32.71,6.50
CCCCCCC#Cc1cncc(-c2nnc(SCc3ccc(Cl)c(Cl)c3)n2C)c1 [drawing 111],18.98,19.98,17.98
C#Cc1cncc(-c2nnc(SCc3ccc(Cl)cc3)n2C)c1 [drawing 113],3.10,3.02,3.18
CCCCCCC#Cc1cncc(-c2nnc(SCc3ccc(Cl)cc3)n2C)c1 [drawing 114],2.36,2.25,2.47
CCCCCCC#Cc1cccc(-c2nnc(SCc3ccc(Cl)cc3)n2C)c1 [drawing 115],1.77,1.97,1.58
CCCCCCC#Cc1cncc(-c2nnc(SCc3ccc(Cl)cc3)n2C)c1 [drawing 116],1.67,1.57,1.76
CCCCCCC#Cc1cncc(-c2nnc(SCc3ccc(Cl)cc3)n2C)c1 [drawing 117],1.56,1.41,1.70
CCCCCCC#Cc1cncc(-c2nnc(SCc3ccc([N+](=O)[O-])o3)n2C)c1 [drawing 120],1.31,1.30,1.31
CCCCCCC#Cc1cncc(-c2nnc(SCCn3c([N+](=O)[O-])cnc3C)n2C)c1 [drawing 121],1.19,1.17,1.20

# Same assay, conditions: 125 uM, 72 hours
Structure (SMILES),% Cell Viability Average [%],% Cell Viability Replicate 1 [%],% Cell Viability Replicate 2 [%]
CCCCCCC#Cc1cncc(C(=O)NN)c1,36.66,34.62,38.69
CCCCCCC#Cc1cncc(-c2nnc(SCc3ccc(Cl)cc3)[nH]2)c1 [drawing 97],67.98,68.39,67.58
CCCCCCC#Cc1cncc(-c2nnc(SCc3ccc(Cl)c(F)c3)n2C)c1 [drawing 101],50.78,49.91,51.65
CCCCCCC#Cc1cncc(-c2nnc(SCc3cc([N+](=O)[O-])cc([N+](=O)[O-])c3)n2C)c1 [drawing 104],41.70,42.56,40.84
CCCCCCC#Cc1cncc(-c2nnc(SCc3cccc(Cl)c3)n2C)c1 [drawing 118],1.53,2.13,0.94
CCCCCCC#Cc1cncc(-c2nnc(SCc3ccc(Cl)cc3)[nH]2)c1 [drawing 119],1.41,1.43,1.38
CCCCCCC#Cc1cncc(-c2nnc(SCc3cc(F)cc(F)c3)n2C)c1 [drawing 123],0.96,0.98,0.94

# Same assay, conditions: 72 hours
Structure (SMILES),% Cell Viability Average,% Cell Viability Replicate 1,% Cell Viability Replicate 2
"[H]/N=C(/N)N[C@H]1[C@H](O)[C@@H](O)[C@H](O[C@@H]2O[C@@H](C)[C@](O)(C=O)[C@H]2O[C@@H]2O[C@@H](CO)[C@H](O)[C@@H](O)[C@@H]2NC)[C@@H](N/C(N)=N\[H])[C@@H]1O [Streptomycin, reference compound]",110.98% and 106.86% and 105.48%,112.83% and 110.01% and 108.58%,109.14% and 103.70% and 102.37%
